Values of other authors, collected in patent US4556678A (Key Pharmaceuticals, Inc., priority 1982, dated 1985).

[1] = oral formulations currently in use

For `CC(C)NCC(O)COc1cccc2ccccc12` (stereo not drawn) [Propranolol, propranolol], the bioavailability (administration with food) is given as “enhance its bioavailability”, the “absorption from the gastrointestinal tract” value [1] is given as “almost completely absorbed” and the liver metabolism [1] is given as “subject to rapid liver metabolism”.
